Test results: patent publication US9315483B2, “Synthesis of deuterated catechols and benzo[D][1,3]dioxoles and derivatives thereof” (Concert Pharmaceuticals, Inc., priority 2007, dated 2016)

Legend:
CYP2D6 = CYP2D6 (Homo sapiens, UniProt P10635); experiment: in vitro
Description: Method: This study was conducted according to the procedure established by Bertelsen et al for paroxetine. See Bertelsen K M, Venkatakrishnan K, von Moltke L L, Obach S, Greenblatt, D J. Apparent mechanism-based inhibition of human CYP2D6 in vitro by paroxetine: comparison with fluoxetine and quinidine. Drug Met Disp 2003; 31:289-293. Briefly, the test articles were pre-incubated with human liver microsomes for various times followed by the addition of dextromethorphan, a CYP2D6 substrate. The formation of dextrorphan, a CYP2D6-specific metabolite of dextromethorphan, was monitored as a measure of CYP2D6 activity.

in vitro [1] = experiment: in vitro
Description: (§1) Method: Test Compound A was evaluated at a concentration of 1 μM for apparent metabolic stability by the in vitro t1/2 method described by Obach et al. See Obach R S, Baxter J G, Liston T E, Silber B M, Jones B C, MacIntyre F, et al. The prediction of human pharmacokinetic parameters from preclinical and in vitro metabolism data. JPET 1997; 283:46-58.

in vitro [2] = experiment: in vitro; remark: listed apart in the source
Description: as §1

[3] = for vasomotor symptoms (VMS); expected
[4] = target: human cDNA-expressed CYP2D6 (Homo sapiens, UniProt P10635); experiment: Drug-drug interaction potential with tamoxifen: formation of endoxifen from N-desmethyl TAM after pre-incubation with CYP2D6
Source text: Objective: The objective of this study was to determine the potential for the deuterated paroxetine, (3S,4R)-3-((2,2-d2-benzo[d][1,3]dioxol-5-yloxy)methyl)-4-(4-fluorophenyl)piperidine, HCl salt-hemihydrate, to inhibit the formation of endoxifen using human cDNA-expressed CYP2D6 as compared with paroxetine. The deuterated paroxetine, (3S,4R)-3-((2,2-d2-benzo[d][1,3]dioxol-5-yloxy)methyl)-4-(4-fluorophenyl)piperidine, HCl salt-hemihydrate, will be referred to as “Test Compound A” in the following examples and the figures.
Method: Test Compound A was pre-incubated for 20 min at various concentrations with human cDNA-expressed CYP2D6 (500 pmol/mL) in the presence of NADPH, after which aliquots of the reaction mixture were diluted 1:10 in buffer containing NADPH. N-desmethyl TAM (50 μM) was then added to the diluted pre-incubation mixtures. After 45 min of incubation, endoxifen concentrations were determined by LC-MS/MS.

CYP2D6, sequence (P10635 whole entry): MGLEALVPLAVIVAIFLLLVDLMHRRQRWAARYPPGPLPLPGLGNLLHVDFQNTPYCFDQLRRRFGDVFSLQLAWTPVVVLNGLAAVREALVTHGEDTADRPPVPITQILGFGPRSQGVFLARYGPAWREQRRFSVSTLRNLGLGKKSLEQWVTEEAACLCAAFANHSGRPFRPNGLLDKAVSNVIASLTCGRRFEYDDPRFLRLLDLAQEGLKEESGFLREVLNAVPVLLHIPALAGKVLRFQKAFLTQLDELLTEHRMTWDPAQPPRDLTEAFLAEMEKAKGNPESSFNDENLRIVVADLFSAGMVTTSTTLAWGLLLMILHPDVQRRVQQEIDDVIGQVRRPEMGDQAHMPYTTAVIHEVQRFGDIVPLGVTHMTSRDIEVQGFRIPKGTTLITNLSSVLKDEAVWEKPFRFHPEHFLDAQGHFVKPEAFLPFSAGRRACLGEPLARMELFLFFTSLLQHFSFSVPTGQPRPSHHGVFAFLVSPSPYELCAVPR
human cDNA-expressed CYP2D6, sequence (P10635 whole entry): as above

KI (inactivation) (CYP2D6; human, microsomes) [µM] | kinact (CYP2D6; human, microsomes) [s⁻¹] | half-life at 1 μM (in vitro [1]; human, microsomes) [min] | half-life at 1 μM (in vitro [2]; rat, microsomes) [min] | Structure (SMILES) | inhibition of CYP2D6, expressed as the percentage of dextrorphan formation relative to control (CYP2D6; microsomes) | CYP2D6 activity (percentage of dextrorphan formation relative to control) (CYP2D6; 0-10 μM concentration range) | inhibition of CYP2D6 (CYP2D6; as the concentration approached 25 μM) | mechanism-based inactivation of CYP2D6 (CYP2D6; at concentrations up to 10 μM) | kINACT for CYP2D6 inactivation (CYP2D6; human liver microsomes) | maximum plasma concentration in humans [3] [nM] | t1/2 (in vitro [1]; Human liver microsomes 0.5 mg/mL, 1 μM) [min] | mean relative amount remaining at the end of 30 minutes incubation (in vitro [1]; human hepatic microsomes 0.5 mg/mL, 1 μM, n=4) [%] | t1/2 less than the corresponding value for paroxetine (in vitro [1]; human liver microsomes) [%] | endoxifen produced in the presence of Test Compound A relative to in the presence of paroxetine ([4]; highest concentration (25 μM)) [fold] | change in the formation of endoxifen from N-desmethyl tamoxifen ([4]; over the range of concentrations tested (0-25 μM), 20 min pre-incubation with NADPH, N-desmethyl TAM 50 μM, 45 min) | t1/2 (in vitro [2]; Rat liver microsomes 0.5 mg/mL, 1 μM) [min] | mean relative amount remaining at the end of 30 minutes incubation (in vitro [2]; rat hepatic microsomes 0.5 mg/mL, 1 μM, n=4) [%] | t1/2 less than the corresponding value for paroxetine (in vitro [2]; rat liver microsomes)
1.96 | 0.00133 | 49 ± 7.8 | 20.4 ± 2.1 | Fc1ccc([C@@H]2CCNC[C@H]2COc2ccc3c(c2)OCO3)cc1 [Paroxetine, paroxetine, reference compound] | concentration- and time-dependent inhibition |  |  |  |  |  |  |  |  |  |  |  |  | 
 |  |  |  | Cl.Cl.O.[2H]C1([2H])Oc2ccc(OC[C@@H]3CNCC[C@H]3c3ccc(F)cc3)cc2O1.[2H]C1([2H])Oc2ccc(OC[C@@H]3CNCC[C@H]3c3ccc(F)cc3)cc2O1 [Test Compound A, (3S,4R)-3-((2,2-d2-benzo[d][1,3]dioxol-5-yloxy)methyl)-4-(4-fluorophenyl)piperidine, HCl salt-hemihydrate] |  | remained similar to that of control | Some inhibition | does not exhibit mechanism-based inactivation | could not be calculated | ≤ 30 | 20.9 ± 2.0 | 37.2±3.9 | ~57 | 12 | little to no change | 15.5 ± 1.6 | 25.5±4.3 | approximately 24%
